Columns and labels:
[1] = system: human cervical tumor cell line HeLa (ATCC CCL-2); experiment: SAC-Formation - Nocodazole-Induced Assay; format: cell-based; settings: Homo sapiens, HeLa, 24 h, HeLa cells, nocodazole 0.1 μg/ml together with test compound, decrease of mitotic cells (phospho-histone H3 Ser10)
In short: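 Loss of phospho-histone H3 Ser10-positive cells, counted against Hoechst-stained nuclei by high-content imaging, marked mitotic breakthrough. Compounds (0.005–20 μM, 0.5% DMSO) were co-dosed with 0.1 μg/ml nocodazole onto HeLa cells for 24 h at 37 °C. Curves were fitted with a four-parameter Hill equation.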

[2] = biological target: T1, catalytic domain of human Bub1 (amino acids 704-1085) (Homo sapiens, UniProt O43683); experiment: Bub1 kinase assay (TR-FRET); format: biochemical; settings: 10 μM ATP, avg, read-out: Bub1 avg (IC50 [mol/l])
T1 construct: catalytic domain of human Bub1 (amino acids 704-1085); His6 (N); made in house; host or cells: insect cells (Hi5)
In short: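 Readout is the 665/620 nm TR-FRET ratio from anti-phosphoserine antibody, Eu-labelled anti-mouse IgG and streptavidin-XL665, scaled between no-enzyme and uninhibited controls. Reaction: 1 μM biotinylated peptide, 10 μM ATP, 60 min, 22 °C, after 15 min compound preincubation with His6-Bub1 (704-1085, insect-expressed, ~200 ng/ml).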

T1 sequence (O43683 704-1085): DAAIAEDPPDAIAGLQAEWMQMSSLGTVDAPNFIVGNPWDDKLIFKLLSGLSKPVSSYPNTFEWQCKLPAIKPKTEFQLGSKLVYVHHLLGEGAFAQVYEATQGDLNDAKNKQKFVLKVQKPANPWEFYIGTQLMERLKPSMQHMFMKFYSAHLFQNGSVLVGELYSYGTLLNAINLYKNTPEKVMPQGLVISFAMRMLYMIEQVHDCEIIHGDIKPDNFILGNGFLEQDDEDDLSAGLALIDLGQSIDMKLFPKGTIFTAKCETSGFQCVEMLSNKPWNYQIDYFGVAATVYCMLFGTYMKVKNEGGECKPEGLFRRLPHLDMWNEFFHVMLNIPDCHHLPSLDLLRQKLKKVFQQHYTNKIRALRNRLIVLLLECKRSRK

Compound | IC50 [1] [µM] | IC50 [2] [µM]
Cc1nsc(Nc2cnc(C(F)(F)F)cn2)c1C(=O)Nc1ccc(C(=O)N2CCN(CC(F)(F)F)CC2)cc1 [Example 260, 3-methyl-N-(4-{[4-(2,2,2-trifluoroethyl)piperazin-1-yl]carbonyl}phenyl)-5-{[5-(trifluoromethyl)pyrazin-2-yl]amino}-1,2-thiazole-4-carboxamide] | 0.087 | > 20
CC(=O)N1CCC(Oc2ccc(NC(=O)c3c(C)nsc3Nc3cnc4ccccc4n3)cn2)CC1 [Example 22, N-{6-[(1-acetylpiperidin-4-yl)oxy]pyridin-3-yl}-3-methyl-5-(quinoxalin-2-ylamino)-1,2-thiazole-4-carboxamide] | 0.58 | ≥ 20
Cc1nsc(Nc2cnc3ccccc3n2)c1C(=O)Nc1cccc(NS(=O)(=O)C2CCN(C(=O)OC(C)(C)C)C2)c1 (stereo not shown) [Example 290, tert-butyl 3-{[3-({[3-methyl-5-(quinoxalin-2-ylamino)-1,2-thiazol-4-yl]carbonyl}amino)phenyl]sulfamoyl} pyrrolidine-1-carboxylate] | 2 | > 20
Cc1nsc(Nc2cnc3ccccc3n2)c1C(=O)Nc1cccc(NS(=O)(=O)C2CN(CC(F)F)C2)c1 [Example 286, N-[3-({[1-(2,2-difluoroethyl)azetidin-3-yl]sulfonyl}amino)phenyl]-3-methyl-5-(quinoxalin-2-ylamino)-1,2-thiazole-4-carboxamide] | 4.1 | > 20
Cc1nsc(Nc2cncc(C(F)(F)F)n2)c1C(=O)Nc1ccc(F)c(OC2CCN(CCF)CC2)c1 [Example 269, N-(4-fluoro-3-{[1-(2-fluoroethyl)piperidin-4-yl]oxy}phenyl)-3-methyl-5-{[6-(trifluoromethyl)pyrazin-2-yl]amino}-1,2-thiazole-4-carboxamide] | 0.12 | > 20
Cc1nsc(Nc2cnc3ccccc3n2)c1C(=O)Nc1cccc(C(=O)NC2CC2)c1 [Example 249, N-[3-(cyclopropylcarbamoyl)phenyl]-3-methyl-5-(quinoxalin-2-ylamino)-1,2-thiazole-4-carboxamide] | 0.96 | 1.2
Cc1nsc(Nc2cncc(C(F)(F)F)n2)c1C(=O)Nc1ccc(F)c(OC2CCN(CC(F)(F)F)CC2)c1 [Example 267, N-(4-fluoro-3-{[1-(2,2,2-trifluoroethyl)piperidin-4-yl]oxy}phenyl)-3-methyl-5-{[6-(trifluoromethyl)pyrazin-2-yl]amino}-1,2-thiazole-4-carboxamide] | 0.047 | > 20
Cc1nsc(Nc2cnc(C(F)(F)F)cn2)c1C(=O)Nc1ccc(F)c(OCCCNCCC(F)(F)F)c1 [Example 307, N-(4-fluoro-3-{3-[(3,3,3-trifluoropropyl)amino]propoxy}phenyl)-3-methyl-5-{[5-(trifluoromethyl)pyrazin-2-yl]amino}-1,2-thiazole-4-carboxamide] | 0.099 | ≥ 20
Cc1nsc(Nc2cnc(C(F)(F)F)cn2)c1C(=O)Nc1ccc(F)c(OC2CCN(CC(F)F)C2)c1 (stereo not shown) [Example 314, N-(3-{[1-(2,2-difluoroethyl)pyrrolidin-3-yl]oxy}-4-fluorophenyl)-3-methyl-5-{[5-(trifluoromethyl)pyrazin-2-yl]amino}-1,2-thiazole-4-carboxamide] | 0.053 | ≥ 20
Cc1nsc(Nc2cnc(C(F)(F)F)cn2)c1C(=O)Nc1ccc(OC2CCN(C(CF)CF)C2)nc1 (stereo not shown) [Example 313, N-(6-{[1-(1,3-difluoropropan-2-yl)pyrrolidin-3-yl]oxy}pyridin-3-yl)-3-methyl-5-{[5-(trifluoromethyl)pyrazin-2-yl]amino}-1,2-thiazole-4-carboxamide] | 0.14 | ≥ 20
Cc1nsc(Nc2cnc(C(F)(F)F)cn2)c1C(=O)Nc1ccc(C(=O)NC2CCN(CC(F)F)CC2)cc1 [Example 259, N-(4-{[1-(2,2-difluoroethyl)piperidin-4-yl]carbamoyl}phenyl)-3-methyl-5-{[5-(trifluoromethyl)pyrazin-2-yl]amino}-1,2-thiazole-4-carboxamide] | 0.4 | > 20
Cc1nsc(Nc2cnc(C(F)(F)F)cn2)c1C(=O)Nc1ccc(F)c(OCC2CCN(C(CF)CF)C2)c1 (stereo not shown) [Example 320, N-(3-{[1-(1,3-difluoropropan-2-yl)pyrrolidin-3-yl]methoxy}-4-fluorophenyl)-3-methyl-5-{[5-(trifluoromethyl)pyrazin-2-yl]amino}-1,2-thiazole-4-carboxamide] | 0.055 | ≥ 20
Cc1nsc(Nc2cc(C#N)ccn2)c1C(=O)Nc1ccc(OC2CCN(C(=O)OC(C)(C)C)CC2)nc1 [Example 23, tert-Butyl 4-({5-[({5-[(4-cyanopyridin-2-yl)amino]-3-methyl-1,2-thiazol-4-yl}-carbonyl)amino]pyridin-2-yl}oxy)piperidine-1-carboxylate] | 0.049 | ≥ 20
Cc1nsc(Nc2cnc(C(F)(F)F)cn2)c1C(=O)Nc1ccc(F)c(OCCCN(C)CCC(F)(F)F)c1 [Example 303, N-(4-fluoro-3-{3-[methyl(3,3,3-trifluoropropyl)amino]propoxy}phenyl)-3-methyl-5-{[5-(trifluoromethyl)pyrazin-2-yl]amino}-1,2-thiazole-4-carboxamide] | 0.051 | ≥ 20
CCNC(=O)c1cccc(NC(=O)c2c(C)nsc2Nc2ccc(C#N)cn2)c1 [Example 252, 5-[(5-cyanopyridin-2-yl)amino]-N-[3-(ethylcarbamoyl)phenyl]-3-methyl-1,2-thiazole-4-carboxamide] | 0.53 | > 20
Cc1nsc(Nc2cnc3ccccc3n2)c1C(=O)Nc1cccc(C(=O)NC(C)C)c1 [Example 253, N-[3-(isopropylcarbamoyl)phenyl]-3-methyl-5-(quinoxalin-2-ylamino)-1,2-thiazole-4-carboxamide] | 0.83 | 0.32
Cc1nsc(Nc2cncc(C(F)(F)F)n2)c1C(=O)Nc1ccc(OCCO)nc1 [Example 276, N-[6-(2-hydroxyethoxy)pyridin-3-yl]-3-methyl-5-{[6-(trifluoromethyl)pyrazin-2-yl]amino}-1,2-thiazole-4-carboxamide] | 0.35 | > 20
Cc1nsc(Nc2cnc(C(F)(F)F)cn2)c1C(=O)Nc1ccc(F)c(OC2CCN(CCF)CC2)c1 [Example 266, N-(4-fluoro-3-{[1-(2-fluoroethyl)piperidin-4-yl]oxy}phenyl)-3-methyl-5-{[5-(trifluoromethyl)pyrazin-2-yl]amino}-1,2-thiazole-4-carboxamide] | 0.15 | > 20
Cc1nsc(Nc2cnc3ccccc3n2)c1C(=O)Nc1cccc(NS(=O)(=O)C2CCN(CC(F)(F)F)CC2)c1 [Example 281, 3-methyl-5-(quinoxalin-2-ylamino)-N-[3-({[1-(2,2,2-trifluoroethyl)piperidin-4-yl]sulfonyl}amino)phenyl]-1,2-thiazole-4-carboxamide] | 1.2 | > 20
Cc1nsc(Nc2cnc(C(F)(F)F)cn2)c1C(=O)Nc1ccc(F)c(OCC2CCN(CC(F)F)CC2)c1 [Example 308, N-(3-{[1-(2,2-difluoroethyl)piperidin-4-yl]methoxy}-4-fluorophenyl)-3-methyl-5-{[5-(trifluoromethyl)pyrazin-2-yl]amino}-1,2-thiazole-4-carboxamide] | 0.031 | ≥ 20

From US20170334899A1, “AMINO-SUBSTITUTED ISOTHIAZOLES” (Bayer Pharma Aktiengesellschaft, priority 2014, published 2017)
